Here are results for nine compounds from ChEMBL document CHEMBL1649275, “Alterations in two-component regulatory systems of phoPQ and pmrAB are associated with polymyxin B resistance in clinical isolates of Pseudomonas aeruginosa” (2009).

Converted amounts (≈) assume the structure as drawn. A value given as a limit tells only on which side of the number the result lay.

In assay [1] the test system is Pseudomonas aeruginosa. The assay is described as follows: Antibacterial activity against Pseudomonas aeruginosa NY219 by broth dilution method. In kind it is functional.
The subject of assay [2] is Pseudomonas aeruginosa. The assay is described as follows: Antibacterial activity against Pseudomonas aeruginosa NY214 by broth dilution method. In kind it is functional. (In general: Dilution methods test growth across graded concentrations, often in twofold steps.)
The subject of assay [3] is Pseudomonas aeruginosa. In words: Antibacterial activity against Pseudomonas aeruginosa NY215 by broth dilution method. In kind it is functional.
Assay [4] relates to Pseudomonas aeruginosa. In words: Antibacterial activity against Pseudomonas aeruginosa NY217 by broth dilution method. In kind it is functional.
Assay [5] concerns Pseudomonas aeruginosa. In words: Antibacterial activity against Pseudomonas aeruginosa PAO1 by broth dilution method. In kind it is functional.
Assay [6] has as its system Pseudomonas aeruginosa. The assay is described as follows: Antibacterial activity against Pseudomonas aeruginosa NY220 by broth dilution method. In kind it is functional.
The subject of assay [7] is Pseudomonas aeruginosa. The assay is described as follows: Antibacterial activity against Pseudomonas aeruginosa NY215 harboring Pseudomonas aeruginosa PAO1 phoPQ gene by broth dilution method. In kind it is functional, organism-based.
In assay [8] the test system is Pseudomonas aeruginosa. In words: Antibacterial activity against Pseudomonas aeruginosa PAO1 harboring deltapmrAB::Tc/pUCP18 by broth dilution method. In kind it is functional, organism-based.
The subject of assay [9] is Pseudomonas aeruginosa. In words: Antibacterial activity against Pseudomonas aeruginosa NY219 harboring Pseudomonas aeruginosa PAO1 pmrAB gene by broth dilution method. In kind it is functional, organism-based.
In assay [10] the test system is Pseudomonas aeruginosa. In words: Antibacterial activity against Pseudomonas aeruginosa NY214 harboring arnB::TC by broth dilution method. In kind it is functional, organism-based.
Assay [11] concerns Pseudomonas aeruginosa. The assay is described as follows: Antibacterial activity against Pseudomonas aeruginosa PAO1 harboring Pseudomonas aeruginosa NY219 deltaoprH-phoPQ::Gm/pAU149 by broth dilution method. In kind it is functional, organism-based.
Assay [12] has as its system Pseudomonas aeruginosa. In words: Antibacterial activity against Pseudomonas aeruginosa PAO1 harboring Pseudomonas aeruginosa PAO1 deltaoprH-phoPQ::Gm/pAU124 by broth dilution method. In kind it is functional, organism-based.
The test system of assay [13] is Pseudomonas aeruginosa. In words: Antibacterial activity against Pseudomonas aeruginosa NY219 harboring Pseudomonas aeruginosa PAO1 phoPQ gene by broth dilution method. In kind it is functional, organism-based.
Assay [14] has as its system Pseudomonas aeruginosa. In words: Antibacterial activity against Pseudomonas aeruginosa NY215 harboring arnB::TC by broth dilution method. In kind it is functional, organism-based.
Assay [15] has as its system Pseudomonas aeruginosa. In words: Antibacterial activity against Pseudomonas aeruginosa PAO1 harboring deltaoprH-phoPQ::Gm by broth dilution method. In kind it is functional, organism-based.
Assay [16] has as its system Pseudomonas aeruginosa. The assay is described as follows: Antibacterial activity against Pseudomonas aeruginosa NY217 harboring Pseudomonas aeruginosa PAO1 phoPQ gene by broth dilution method. In kind it is functional, organism-based.
Assay [17] deals with Pseudomonas aeruginosa. The assay is described as follows: Antibacterial activity against Pseudomonas aeruginosa NY217 harboring Pseudomonas aeruginosa PAO1 pmrAB gene by broth dilution method. In kind it is functional, organism-based.
Assay [18] concerns Pseudomonas aeruginosa. The assay is described as follows: Antibacterial activity against Pseudomonas aeruginosa PAO1 harboring Pseudomonas aeruginosa NY214 deltaoprH-phoPQ::Gm/pAU146 by broth dilution method. In kind it is functional, organism-based.
For assay [19], the system named is Pseudomonas aeruginosa. The assay is described as follows: Antibacterial activity against Pseudomonas aeruginosa PAO1 harboring Pseudomonas aeruginosa NY217 deltaoprH-phoPQ::Gm/pAU148 by broth dilution method. In kind it is functional, organism-based.
Assay [20] deals with Pseudomonas aeruginosa. In words: Antibacterial activity against Pseudomonas aeruginosa NY220 harboring arnB::TC by broth dilution method. In kind it is functional, organism-based.
Assay [21] relates to Pseudomonas aeruginosa. In words: Antibacterial activity against Pseudomonas aeruginosa PAO1 harboring deltaoprH-phoPQ::Gm/pUCP18 by broth dilution method. In kind it is functional, organism-based.
Assay [22] has as its system Pseudomonas aeruginosa. The assay is described as follows: Antibacterial activity against Pseudomonas aeruginosa NY214 harboring Pseudomonas aeruginosa PAO1 phoPQ gene by broth dilution method. In kind it is functional, organism-based.
The subject of assay [23] is Pseudomonas aeruginosa. In words: Antibacterial activity against Pseudomonas aeruginosa NY214 harboring Pseudomonas aeruginosa PAO1 pmrAB gene by broth dilution method. In kind it is functional, organism-based.
For assay [24], the system named is Pseudomonas aeruginosa. The assay is described as follows: Antibacterial activity against Pseudomonas aeruginosa PAO1 harboring deltapmrAB::Tc by broth dilution method. In kind it is functional, organism-based.
Assay [25] has as its system Pseudomonas aeruginosa. The assay is described as follows: Antibacterial activity against Pseudomonas aeruginosa NY217 harboring arnB::TC by broth dilution method. In kind it is functional, organism-based.
Assay [26] relates to Pseudomonas aeruginosa. The assay is described as follows: Antibacterial activity against Pseudomonas aeruginosa NY219 harboring pUCP18 by broth dilution method. In kind it is functional, organism-based.
In assay [27] the test system is Pseudomonas aeruginosa. The assay is described as follows: Antibacterial activity against Pseudomonas aeruginosa PAO1 harboring Pseudomonas aeruginosa PAO1 deltapmrAB::Tc/pAU126 by broth dilution method. In kind it is functional, organism-based.
Assay [28] deals with Pseudomonas aeruginosa. The assay is described as follows: Antibacterial activity against Pseudomonas aeruginosa NY215 harboring Pseudomonas aeruginosa PAO1 pmrAB gene by broth dilution method. In kind it is functional, organism-based.
Assay [29] concerns Pseudomonas aeruginosa. In words: Antibacterial activity against Pseudomonas aeruginosa NY220 harboring Pseudomonas aeruginosa PAO1 pmrAB gene by broth dilution method. In kind it is functional, organism-based.
The test system of assay [30] is Pseudomonas aeruginosa. The assay is described as follows: Antibacterial activity against Pseudomonas aeruginosa PAO1 harboring Pseudomonas aeruginosa NY220 deltapmrAB::Tc/pAU154 by broth dilution method. In kind it is functional, organism-based.
The test system of assay [31] is Pseudomonas aeruginosa. In words: Antibacterial activity against Pseudomonas aeruginosa NY215 harboring pUCP18 by broth dilution method. In kind it is functional, organism-based.
In assay [32] the test system is Pseudomonas aeruginosa. In words: Antibacterial activity against Pseudomonas aeruginosa PAO1 harboring arnB::TC by broth dilution method. In kind it is functional, organism-based.
In assay [33] the test system is Pseudomonas aeruginosa. The assay is described as follows: Antibacterial activity against Pseudomonas aeruginosa NY217 harboring pUCP18 by broth dilution method. In kind it is functional, organism-based.
The test system of assay [34] is Pseudomonas aeruginosa. The assay is described as follows: Antibacterial activity against Pseudomonas aeruginosa NY220 harboring Pseudomonas aeruginosa PAO1 phoPQ gene by broth dilution method. In kind it is functional, organism-based.
The subject of assay [35] is Pseudomonas aeruginosa. In words: Antibacterial activity against Pseudomonas aeruginosa PAO1 harboring Pseudomonas aeruginosa NY215 deltaoprH-phoPQ::Gm/pAU147 by broth dilution method. In kind it is functional, organism-based.
The test system of assay [36] is Pseudomonas aeruginosa. The assay is described as follows: Antibacterial activity against Pseudomonas aeruginosa NY214 harboring pUCP18 by broth dilution method. In kind it is functional, organism-based.
Assay [37] concerns Pseudomonas aeruginosa. The assay is described as follows: Antibacterial activity against Pseudomonas aeruginosa NY220 harboring pUCP18 by broth dilution method. In kind it is functional, organism-based.

As a reminder, the MIC is the lowest concentration that inhibits growth of the organism. Low values mean greater potency, high ones weaker potency. On to `CC1(C)S[C@@H]2[C@H](NC(=O)[C@H](NC(=O)N3CCNC3=O)c3ccccc3)C(=O)N2[C@H]1C(=O)O` [AZLOCILLIN], for which the MIC in the assay with Pseudomonas aeruginosa [1] worked out at 8 mg/L (≈ 17.3 µM); with Pseudomonas aeruginosa [2], 8 mg/L (≈ 17.3 µM); against Pseudomonas aeruginosa [3], 8 mg/L (≈ 17.3 µM); against Pseudomonas aeruginosa [4], 16 mg/L (≈ 34.7 µM); in the assay on Pseudomonas aeruginosa [5], 2 mg/L (≈ 4.33 µM); against Pseudomonas aeruginosa [6], 16 mg/L (≈ 34.7 µM).

As to `CC1(C)S[C@@H]2[C@H](NC(=O)C(C(=O)O)c3ccccc3)C(=O)N2[C@H]1C(=O)O` (stereo partly specified) [CARBENICILLIN], the MIC was 256 mg/L (≈ 677 µM) against Pseudomonas aeruginosa [1]; 256 mg/L (≈ 677 µM) in the assay on Pseudomonas aeruginosa [2]; 256 mg/L (≈ 677 µM) in the assay on Pseudomonas aeruginosa [3]; greater than 256 mg/L with Pseudomonas aeruginosa [4]; 64 mg/L (≈ 169 µM) with Pseudomonas aeruginosa [5]; greater than 256 mg/L in the assay on Pseudomonas aeruginosa [6].

On to `CO/N=C(\C(=O)N[C@@H]1C(=O)N2C(C(=O)O)=C(CSc3nc(=O)c(O)nn3C)CS[C@H]12)c1csc(N)n1` [CEFTRIAXONE], for which the MIC came to 32 mg/L (≈ 57.7 µM) against Pseudomonas aeruginosa [1]; 16 mg/L (≈ 28.9 µM) in the assay with Pseudomonas aeruginosa [2]; 32 mg/L (≈ 57.7 µM) against Pseudomonas aeruginosa [3]; 16 mg/L (≈ 28.9 µM) in the assay on Pseudomonas aeruginosa [4]; 4 mg/L (≈ 7.21 µM) against Pseudomonas aeruginosa [5]; 32 mg/L (≈ 57.7 µM) in the assay on Pseudomonas aeruginosa [6].

Take `O=C(O)c1cn(C2CC2)c2cc(N3CCNCC3)c(F)cc2c1=O` [CIPROFLOXACIN]: the MIC in the assay on Pseudomonas aeruginosa [3] amounted to 4 mg/L (≈ 12.1 µM); against Pseudomonas aeruginosa [4], 1 mg/L (≈ 3.02 µM).

`CCn1cc(C(=O)O)c(=O)c2ccc(C)nc21` [NALIDIXIC ACID]: the MIC with Pseudomonas aeruginosa [1] was 64 mg/L (≈ 276 µM); with Pseudomonas aeruginosa [2] it was greater than 256 mg/L; against Pseudomonas aeruginosa [3] it was greater than 256 mg/L; against Pseudomonas aeruginosa [4], 64 mg/L (≈ 276 µM); in the assay with Pseudomonas aeruginosa [5], 64 mg/L (≈ 276 µM); in the assay with Pseudomonas aeruginosa [6] it was greater than 256 mg/L.

Consider `CC1(C)S[C@@H]2[C@H](NC(=O)[C@H](C(=O)O)c3ccsc3)C(=O)N2[C@H]1C(=O)O` [TICARCILLIN], for which the minimal inhibitory concentration (MIC) turned out to be 32 mg/L (≈ 83.2 µM) against Pseudomonas aeruginosa [1]; 32 mg/L (≈ 83.2 µM) with Pseudomonas aeruginosa [2]; 32 mg/L (≈ 83.2 µM) in the assay on Pseudomonas aeruginosa [3]; 32 mg/L (≈ 83.2 µM) against Pseudomonas aeruginosa [4]; 8 mg/L (≈ 20.8 µM) against Pseudomonas aeruginosa [5]; 32 mg/L (≈ 83.2 µM) with Pseudomonas aeruginosa [6].

`NC[C@H]1O[C@H](O[C@H]2[C@H](O)[C@@H](O[C@H]3O[C@H](CO)[C@@H](O)[C@H](N)[C@H]3O)[C@H](N)C[C@@H]2N)[C@H](N)C[C@@H]1O` [TOBRAMYCIN]: the minimum inhibitory concentration (MIC) was determined as 2 mg/L (≈ 4.28 µM) against Pseudomonas aeruginosa [1]; 2 mg/L (≈ 4.28 µM) against Pseudomonas aeruginosa [2]; 2 mg/L (≈ 4.28 µM) against Pseudomonas aeruginosa [3]; 1 mg/L (≈ 2.14 µM) against Pseudomonas aeruginosa [4]; 0.25 mg/L (≈ 0.535 µM) in the assay on Pseudomonas aeruginosa [5]; 8 mg/L (≈ 17.1 µM) in the assay on Pseudomonas aeruginosa [6].

As to GENTAMICIN, the MIC against Pseudomonas aeruginosa [1] came out at 4 mg/L; in the assay on Pseudomonas aeruginosa [2] it was 4 mg/L; in the assay on Pseudomonas aeruginosa [3] it was 32 mg/L; with Pseudomonas aeruginosa [4], 4 mg/L; with Pseudomonas aeruginosa [5] it was 0.25 mg/L; in the assay with Pseudomonas aeruginosa [6] it was 4 mg/L.

For POLYMYXIN B, the MIC turned out to be 0.5 mg/L against Pseudomonas aeruginosa [7]; 0.25 mg/L with Pseudomonas aeruginosa [8]; 8 mg/L against Pseudomonas aeruginosa [1]; 1 mg/L in the assay on Pseudomonas aeruginosa [9]; 0.5 mg/L against Pseudomonas aeruginosa [10]; 4 mg/L in the assay with Pseudomonas aeruginosa [11]. The minimum inhibitory concentration (MIC) was 0.25 mg/L with Pseudomonas aeruginosa [12]; 1 mg/L with Pseudomonas aeruginosa [13]; 0.5 mg/L against Pseudomonas aeruginosa [14]; 0.5 mg/L against Pseudomonas aeruginosa [15]; 8 mg/L against Pseudomonas aeruginosa [2]; 1 mg/L with Pseudomonas aeruginosa [16]. Besides, the minimal inhibitory concentration (MIC) against Pseudomonas aeruginosa [3] was 8 mg/L; against Pseudomonas aeruginosa [17] it was 1 mg/L; against Pseudomonas aeruginosa [18] it was 4 mg/L; in the assay on Pseudomonas aeruginosa [19], 4 mg/L; with Pseudomonas aeruginosa [20], 0.5 mg/L; with Pseudomonas aeruginosa [21], 0.25 mg/L. Moreover, the minimal inhibitory concentration (MIC) in the assay on Pseudomonas aeruginosa [22] is 1 mg/L; in the assay on Pseudomonas aeruginosa [4], 8 mg/L; against Pseudomonas aeruginosa [23] it was 1 mg/L; with Pseudomonas aeruginosa [24], 0.25 mg/L; in the assay on Pseudomonas aeruginosa [5] it was 0.5 mg/L; in the assay with Pseudomonas aeruginosa [25], 0.5 mg/L. Moreover, the MIC is 8 mg/L with Pseudomonas aeruginosa [26]; less than 0.25 mg/L against Pseudomonas aeruginosa [27]; 0.5 mg/L against Pseudomonas aeruginosa [28]; 8 mg/L against Pseudomonas aeruginosa [29]; 4 mg/L in the assay with Pseudomonas aeruginosa [30]; 8 mg/L in the assay on Pseudomonas aeruginosa [31]. In addition, the MIC is 0.5 mg/L with Pseudomonas aeruginosa [32]; 8 mg/L against Pseudomonas aeruginosa [33]; 8 mg/L against Pseudomonas aeruginosa [34]; 4 mg/L with Pseudomonas aeruginosa [35]; 8 mg/L in the assay with Pseudomonas aeruginosa [36]; 8 mg/L in the assay on Pseudomonas aeruginosa [6]. In the assay with Pseudomonas aeruginosa [37], this compound came in with an MIC of 8 mg/L.
